# Data: PubChem BioAssay (NCI)
#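 Exposure lasted 48 hours, with cells grown in 96-well plates and compounds tested at five concentrations. GI50 is the concentration that inhibits growth by half. At the TGI there is no net growth.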
# Legend:
# Test in all cases: DTP human tumour cell line panel, 48 h
# [1] = test system: 786-0 renal
# [2] = test system: A498 renal
# [3] = test system: A549 NSCLC
# [4] = test system: ACHN renal
# [5] = test system: BT-549 breast
# [6] = test system: CAKI-1 renal
# [7] = test system: CCRF-CEM leukemia
# [8] = test system: COLO 205 colon
# [9] = test system: DU-145 prostate
# [10] = test system: EKVX NSCLC
# [11] = test system: HCC-2998 colon
# [12] = test system: HCT-116 colon
# [13] = test system: HCT-15 colon
# [14] = test system: HL-60(TB) leukemia
# [15] = test system: HOP-62 NSCLC
# [16] = test system: HOP-92 NSCLC
# [17] = test system: HS 578T breast
# [18] = test system: HT29 colon
# [19] = test system: IGROV1 ovarian
# [20] = test system: K-562 leukemia
# [21] = test system: KM12 colon
# [22] = test system: LOX IMVI melanoma
# [23] = test system: M14 melanoma
# [24] = test system: MALME-3M melanoma
# [25] = test system: MCF7 breast
# [26] = test system: MDA-MB-231 breast
# [27] = test system: MDA-MB-435
# [28] = test system: MOLT-4 leukemia
# [29] = test system: NCI-H226 lung
# [30] = test system: NCI-H23 lung
# [31] = test system: NCI-H460 lung
# [32] = test system: NCI-H522 lung
# [33] = test system: NCI/ADR-RES ovarian
# [34] = test system: OVCAR-3 ovarian
# [35] = test system: OVCAR-4 ovarian
# [36] = test system: OVCAR-5 ovarian
# [37] = test system: OVCAR-8 ovarian
# [38] = test system: PC-3 prostate
# [39] = test system: RPMI-8226 leukemia
# [40] = test system: RXF 393 renal
# [41] = test system: SF-268 CNS
# [42] = test system: SF-295 CNS
# [43] = test system: SF-539 CNS
# [44] = test system: SK-MEL-2 melanoma
# [45] = test system: SK-MEL-28 melanoma
# [46] = test system: SK-MEL-5 melanoma
# [47] = test system: SK-OV-3 ovarian
# [48] = test system: SN12C renal
# [49] = test system: SNB-19 CNS
# [50] = test system: SNB-75 CNS
# [51] = test system: SW-620 colon
# [52] = test system: T-47D breast
# [53] = test system: TK-10 renal
# [54] = test system: U251 CNS
# [55] = test system: UACC-257 melanoma
# [56] = test system: UACC-62 melanoma
# [57] = test system: UO-31 renal
compound,measurement,setting,value
CCc1nccc2c1nc(-c1nonc1N)n2CC,GI50,[1],> 25 µM
same,TGI,[1],> 25 µM
same,GI50,[2],7.1 µM
same,TGI,[2],> 25 µM
same,GI50,[3],> 25 µM
same,TGI,[3],> 25 µM
same,GI50,[4],> 23.2 µM
same,TGI,[4],> 25 µM
same,GI50,[5],> 23.3 µM
same,TGI,[5],> 25 µM
same,GI50,[6],12.2 µM
same,TGI,[6],> 25 µM
same,GI50,[7],> 25 µM
same,TGI,[7],> 25 µM
same,GI50,[8],> 25 µM
same,TGI,[8],> 25 µM
same,GI50,[9],> 25 µM
same,TGI,[9],> 25 µM
same,GI50,[10],> 25 µM
same,TGI,[10],> 25 µM
same,GI50,[11],> 25 µM
same,TGI,[11],> 25 µM
same,GI50,[12],20.4 µM
same,TGI,[12],> 25 µM
same,GI50,[13],> 25 µM
same,TGI,[13],> 25 µM
same,GI50,[14],> 25 µM
same,TGI,[14],> 25 µM
same,GI50,[15],> 25 µM
same,TGI,[15],> 25 µM
same,GI50,[16],1.39 µM
same,TGI,[16],21.5 µM
same,GI50,[17],> 19.7 µM
same,TGI,[17],> 25 µM
same,GI50,[18],> 25 µM
same,TGI,[18],> 25 µM
same,GI50,[19],16.8 µM
same,TGI,[19],> 25 µM
same,GI50,[20],> 25 µM
same,TGI,[20],> 25 µM
same,GI50,[21],> 25 µM
same,TGI,[21],> 25 µM
same,GI50,[22],> 25 µM
same,TGI,[22],> 25 µM
same,GI50,[23],> 25 µM
same,TGI,[23],> 25 µM
same,GI50,[24],> 25 µM
same,TGI,[24],> 25 µM
same,GI50,[25],> 25 µM
same,TGI,[25],> 25 µM
same,GI50,[26],> 25 µM
same,TGI,[26],> 25 µM
same,GI50,[27],> 25 µM
same,TGI,[27],> 25 µM
same,GI50,[28],> 25 µM
same,TGI,[28],> 25 µM
same,GI50,[29],> 18 µM
same,TGI,[29],> 25 µM
same,GI50,[30],> 25 µM
same,TGI,[30],> 25 µM
same,GI50,[31],> 25 µM
same,TGI,[31],> 25 µM
same,GI50,[32],> 17.7 µM
same,TGI,[32],> 25 µM
same,GI50,[33],> 25 µM
same,TGI,[33],> 25 µM
same,GI50,[34],> 25 µM
same,TGI,[34],> 25 µM
same,GI50,[35],> 25 µM
same,TGI,[35],> 25 µM
same,GI50,[36],> 17.8 µM
same,TGI,[36],> 25 µM
same,GI50,[37],> 25 µM
same,TGI,[37],> 25 µM
same,GI50,[38],> 25 µM
same,TGI,[38],> 25 µM
same,GI50,[39],> 25 µM
same,TGI,[39],> 25 µM
same,GI50,[40],13.6 µM
same,TGI,[40],> 25 µM
same,GI50,[41],> 25 µM
same,TGI,[41],> 25 µM
same,GI50,[42],> 7.78 µM
same,TGI,[42],> 25 µM
same,GI50,[43],> 25 µM
same,TGI,[43],> 25 µM
same,GI50,[44],> 25 µM
same,TGI,[44],> 25 µM
same,GI50,[45],> 25 µM
same,TGI,[45],> 25 µM
same,GI50,[46],> 25 µM
same,TGI,[46],> 25 µM
same,GI50,[47],> 25 µM
same,TGI,[47],> 25 µM
same,GI50,[48],> 25 µM
same,TGI,[48],> 25 µM
same,GI50,[49],> 25 µM
same,TGI,[49],> 25 µM
same,GI50,[50],> 23.4 µM
same,TGI,[50],> 25 µM
same,GI50,[51],> 25 µM
same,TGI,[51],> 25 µM
same,GI50,[52],> 25 µM
same,TGI,[52],> 25 µM
same,GI50,[53],7.83 µM
same,TGI,[53],> 25 µM
same,GI50,[54],> 25 µM
same,TGI,[54],> 25 µM
same,GI50,[55],> 25 µM
same,TGI,[55],> 25 µM
same,GI50,[56],> 25 µM
same,TGI,[56],> 25 µM
same,GI50,[57],9.73 µM
same,TGI,[57],> 25 µM
